Measured values as given in patent US4124721A, “Pesticidal unsymmetrical bis-arylcarbamate sulfide compounds containing a 2,3, dehyrobenzofuran group” (priority 1977, dated 1978).
Values after ≈ are worked out from the molar mass of the structure shown. Like-named read-outs stand apart in the source and are kept apart here.

Assays:
Assay type in all cases: in vivo
[1] = peroral toxicity to mammals (rat LD50); settings: rat, in vivo, po, rat
Protocol: (§1) Certain of these compositions were also evaluated to determine their peroral toxicity to mammals. The animal selected for this experiment was the rat. The test results obtained are expressed in terms of the number of milligrams of compositions per kilogram of weight of the animal required to achieve a mortality rate of 50 percent (LD50).
(§2) The results set forth in TABLE I clearly show the broad spectrum pesticidal activity of the compounds of this invention, as well as their reduced mammalian toxicity. It will be understood that the insect and mite species employed in the above tests are merely representative of a wide variety of pests that can be controlled through the use of the compounds of this invention. A series of comparative tests were conducted to evaluate the relative biological properties of the compounds of the invention and certain prior art compounds. The test procedures employed are identical to those discussed above. The results are reported in the parts per million of the compound required for a 50% kill (LD50).

[2] = tested on: southern armyworm (Prodenia eridania, (Cram.)); assay: Southern Armyworm Leaf Spray Test; settings: Spodoptera eridania, read-out: Southern Armyworm LD50
Protocol: (§3) Suspensions of the test compounds were prepared by dissolving one gram of compound in 50 milliliters of acetone in which had been dissolved 0.1 gram (10 percent of the weight of compound) of an alkylphenoxy polyethoxyethanol surfactant, as an emulsifying or dispersing agent. The resulting solution was mixed into 150 milliliters of water to give roughly 200 milliliters of a suspension containing the compound in finely divided form. The thusprepared stock suspension contained 0.5 percent by weight of compound. The test concentrations in parts per million by weight employed in the tests described hereinbelow were obtained by appropriate dilutions of the stock suspension with water. The test procedures were as follows:
Southern Armyworm Leaf Spray Test
Larvae of the southern armyworm (Prodenia eridania, (Cram.)), reared on Tendergreen bean plants at a temperature of 80°±5° F. and a relative humidity of 50±5 percent, constituted the test insects.
The test compounds were formulated by diluting the stock suspension with water to given a suspension containing 500 parts of test compound per million parts of final formulation. Potted Tendergreen bean plants of standard height and age were placed on a revolving turntable and sprayed with 100-110 milliliters of test compound formulation by use of a DeVilbiss spray gun set at 10 psig air pressure. This application, which lasted 25 seconds, was sufficient to wet plants to run-off. As a control, 100-110 milliliters of a water-acetone-emulsifier solution containing no test compound were also sprayed on infested plants. When dry, the paired leaves were separated and each one was placed in a 9 centimeter Petri dish lined with moistened filter paper. Five randomly selected larvae were introduced into each dish and the dishes were closed. The closed dishes were labeled and held at 80°-85° F. for three days. Although the larvae could easily consume the whole leaf within 24 hours, no more food was added. Larvae which were unable to move the length of the body, even upon stimulation by prodding, were considered dead. Percent mortality was recorded for various concentration levels.
(§4) In these tests the pesticidal activity of the compounds against aphid, mite, Southern Armyworm, Bean Beetle and House Fly was rated as follows:
(§5) Dashes indicate no test conducted.
as §2

rat = assay: peroral toxicity to mammals (rat LD50); settings: for times less toxic to mammals than compound 1: rat LD50 relative to compound 1; for times less toxic to mammals than compound 2: rat LD50 relative to compound 2
Protocol: as §1, §2

[3] = tested on: bean aphid (Aphis fabae Scop.); assay: Bean Aphid Foliage Spray Test; settings: foliar, read-out: Aphid LD50
Protocol: as §3
Bean Aphid Foliage Spray Test
Adults and nymphal stages of the bean aphid (Aphis fabae Scop.) reared on potted dwarf nasturtium plants at 65°-70° F. and 50-70 percent relative humidity, constituted the test insects. For testing purposes, the number of aphids per pot was standardized to 100-150 by trimming plants containing excess aphids.
The test compounds were formulated by diluting the stock suspension with water to give a suspension containing 500 parts of test compound per million parts of final formulation.
The potted plants (one pot per compound tested) infested with 100-150 aphids, were placed on a revolving turntable and sprayed with 100-110 milliliters of test compound formulation by use of a DeVilbiss spray gun set at 40 psig. air pressure. This application, which lasted 25 seconds, was sufficient to wet the plants to run-off. As a control, 100-110 milliliters of a water-acetone-emulsifier solution containing no test compound were also sprayed on infested plants. After spraying, the pots were placed on their sides on a sheet of white standard mimeograph paper which had been previously ruled to facilitate counting. Temperature and humidity in the test room during the 24 hour holding period were 65°-70° F. and 50-70 percent, respectively. Aphids which fell onto the paper and were unable to remain standing after being uprighted were considered dead. Aphis remaining on the plants were observed closely for movement and those which were unable to move the length of the body upon stimulation by prodding were considered dead. Percent mortality was recorded for various concentration levels.
as §4, §5, §2

[4] = tested on: house flies (Musca domestica, L.); assay: Fly Bait Test; settings: read-out: Housefly LD50
Protocol: as §3
Four to six day old adult house flies (Musca domestica, L.) reared according to the specifications of the Chemical Specialties Manufacturing Association (Blue Book, McNair-Dorland Co., N.Y. 1954; pages 243-244, 261) under controlled conditions of 80°±5° F. and 50±5 percent relative humidity, were the test insects. The flies were immobilized by anesthetizing with carbon dioxide and twenty five immobilized individuals, males and females, were transferred to a cage consisting of a standard food strainer about five inches in diameter which was inverted over a wrapping-paper-covered surface. The test compounds were formulated by diluting the stock suspension with a 10 percent (by weight) sugar solution to give a suspension containing 500 parts of test compound per million parts of final formulation, by weight. Ten milliliters of the test formulation were added to a souffle cup containing a one-inch square of an absorbent cotton pad. This bait cup was introduced and centered on the blotting paper under the food strainer prior to admitting the anesthetized flies. The caged flies were allowed to feed on the bait for 24 hours, at a temperature of 80°±5° F. and the relative humidity of 50±5 percent.
as §4, §5, §2

[5] = tested on: Mexican bean beetle (Epilachna varivestis, Muls.); assay: Mexican Bean Beetle Leaf Spray Test; settings: read-out: Mexican Bean Beetle LD50
Protocol: as §3
Mexican Bean Beetle Leaf Spray Test
Fourth instar larvae of the Mexican bean beetle Epilachna varivestis, Muls.), reared on Tendergreen bean plants at a temperature of 80°±5° F. and 50±5 percent relative humidity, were the test insects.
The test compounds were formulated by diluting the stock suspension with water to give a suspension containing 500 parts of test compound per million parts of final formulation. Potted Tendergreen bean plants of standard height and age were placed on a revolving turntable and sprayed with 100-110 milliliters of test compound formulation by use of a DeVilbiss spray gun set at 10 psig air pressure. This application, which lasted 25 seconds, was sufficient to wet plants to run-off. As a control, 100-110 milliliters of a water-acetone-emulsifier solution containing no test compound were also sprayed on infested plants. When dry, the paired leaves were separated and each was placed in a 9 centimeter Petri dish lined with moistened filter paper. Five randomly selected larvae were introduced into each dish, and the dishes were closed. The closed dishes were labeled and held at a temperature of 80°±5° F. for three days. Although the larvae could easily consume the leaf within 24 to 48 hours, no more food was added. Larvae which were unable to move the length of the body, even upon stimulation, were considered dead.
as §4, §5, §2

[6] = peroral, mortality rate of 50 percent, read-out: Rat LD50 (Table I)
[7] = comparative test, read-out: Rat LD50 (Table II)
[8] = concentration required for a 50% kill, comparative test

`CN(SN(C)C(=O)Oc1cccc2c1OC(C)(C)C2)C(=O)Oc1ccc([N+](=O)[O-])cc1` [[2,2-Dimethyl-2,3-dihydro-7-benzofuranyl methylcarbamate]N-(4-nitrophenyl methylcarbamate]sulfide] showed an LD50 [1, 6] of 25 mg/kg.
For `CN(SN(C)C(=O)Oc1cccc2c1OC(C)(C)C2)C(=O)Oc1ccc([N+](=O)[O-])cc1` [Compound 5], the LC50 [2] was 20 mg/L (≈ 44.7 µM), the “times less toxic to mammals than compound 1” value (rat) was “five” and the “times less toxic to mammals than compound 2” value (rat) was “four”. It also gave an LD50 [1, 7] of 25.2 mg/kg, an LC50 [3] of 2 mg/L (≈ 4.47 µM) and an LC50 [4] of 45 mg/L (≈ 101 µM). It also gave an LC50 [5] of 4 mg/L (≈ 8.94 µM).
Compound `CNC(=O)Oc1cccc2c1OC(C)(C)C2` [Compound 1, 2,3-dihydro-2,2-dimethyl-7-benzofuranyl methyl carbamate, reference compound] has an LC50 [2, 8] of 90 mg/L (≈ 407 µM), an LD50 [1, 7] of 5 mg/kg and an LC50 [3, 8] of 2 mg/L (≈ 9.04 µM). It also gave an LC50 [4, 8] of 12 mg/L (≈ 54.2 µM) and an LC50 [5, 8] of 12 mg/L (≈ 54.2 µM).
In the case of `CSc1ccc(OC(=O)N(C)SN(C)C(=O)Oc2cccc3c2OC(C)(C)C3)cc1C` [[2,2-Dimethyl-2,3-dihydro-7-benzofuranylmethylcarbamate]N-[3-methyl-4-methylthiophenyl methylcarbamate]sulfide], the LD50 [1, 6] was 18 mg/kg.
`CN(SN(C)C(=O)Oc1cccc2c1OC(C)(C)C2)C(=O)Oc1cccc2c1OC(C)(C)C2` [Compound 2, reference compound] showed an LC50 [2] of 13 mg/L (≈ 27.5 µM), an LD50 [1, 7] of 6.3 mg/kg and an LC50 [3] of 1 mg/L (≈ 2.12 µM). It also gave an LC50 [4] of 30 mg/L (≈ 63.5 µM) and an LC50 [5] of 2 mg/L (≈ 4.23 µM).
For `CN(SN(C)C(=O)Oc1cccc2c1OC(C)(C)C2)C(=O)Oc1ccc(C(C)(C)C)cc1` [Compound 4, [2,2-Dimethyl-2,3-dihydro-7-benzofuranyl methylcarbamate]N-[4-t-butylphenylmethylcarbamate]sulfide], the LC50 [2] was 23 mg/L (≈ 50.2 µM), the “times less toxic to mammals as compound 2 (first of the two statements for compound 4)” value (rat; rat LD50, printed relative to compound 2) was “nine” and the “times less toxic to mammals than compound 2” value (rat) was “seven”. It also gave an LD50 [1, 6] of 45 mg/kg, an LD50 [1, 7] of 45 mg/kg and an LC50 [3] of 2 mg/L (≈ 4.36 µM). For the same compound, the LC50 [4] was 17 mg/L (≈ 37.1 µM) and the LC50 [5] was 18 mg/L (≈ 39.3 µM).
With `CC(C)c1cccc(OC(=O)N(C)SN(C)C(=O)Oc2cccc3c2OC(C)(C)C3)c1` [Compound 3, [2,2-Dimethyl-2,3-dihydro-7-benzofuranyl methylcarbamate]N-[3-isopropylphenyl methylcarbamate]sulfide] the LC50 [2] was 20 mg/L (≈ 45 µM), the “times less toxic to mammals than compound 1” value (rat) was “at least 16 times” and the “times less toxic to mammals than compound 2” value (rat) was “at least 13 times”. The LD50 [1, 6] was 80 mg/kg, the LD50 [1, 7] was 80 mg/kg and the LC50 [3] was 1 mg/L (≈ 2.25 µM). For the same compound, the LC50 [4] was 22 mg/L (≈ 49.5 µM) and the LC50 [5] was 3 mg/L (≈ 6.75 µM).
